In patent US11878972B2, “Treatment of neurological disorders” (TORQUR AG, priority 2016, dated 2024):

How the values were obtained:
[1] = tested on: LC3-II in STHdh^Q7/Q7 and STHdh^Q111/Q111 cells; experiment: Induction of autophagy in STHdh cells (LC3-II, western blot); assay type: cell-based, mouse; conditions: striatal cells, 4 hours, presence and absence of Bafilomycin A
Description: In order to test whether Cpd. 3 and Cpd. 8 inhibit mTOR signaling and induce autophagy in neuronal cell models of HD, treatment of STHdh^Q111/Q111 and STHdh^Q7/Q7 cells was employed. […] Cells were seeded in 10 cm dishes. When cells were about 80% confluent, cells were differentiated and treated with compounds at the same time. Cells were treated with Cpd. 3 (200 nM, 400 nM, 1230 nM), Cpd. […] At the end of incubation time cells were washed with cold PBS buffer and lysed with 200 μl of RIPA buffer supplemented with 4% Complete protease inhibitor (Roche, Switzerland) and 10% PhosStop (Roche, Switzerland). After 30 min of incubation on ice, lysates were vortexed, centrifuged (20 min, 4° C., 16000 rpm) and supernatants were collected. Protein concentration was determined as described above. 30 μg of protein per sample was analyzed by western blot as described above using the following primary antibodies:
In order to detect levels of LC3-II, an autophagy marker in autophagosomes, cell treatment was performed in the presence and absence of Bafilomycin A, an inhibitor of autophagosome degradation. Thus compounds lead to accumulation of LC3-II levels when autophagy is induced. Cpd. 3 (FIG. 6C) and Cpd. […] For Cpd. […] Cpd.

[2] = tested on: mTOR signaling cascade (phosphorylation of S6rP and AKT); experiment: Target engagement in brain and thigh muscle (western blot); assay type: in vivo, mouse; conditions: single oral 50 mg/kg
Description: Tissue was snap frozen in liquid nitrogen and stored at −80° C. Tissue was thawed and lysed in RIPA buffer 1 ml/half brain. Complete protease inhibitor and PhosStop phosphatase inhibitor (Roche) was added to the buffer before lysis. Tissue was homogenized manually and centrifuged twice at 16000 rpm, 4° C. for 20 minutes. Supernatant was frozen with 10% glycerol at −80° C. Protein concentration was performed using Bradford reagent. For western blot analysis of AKT and S6rP phosphorylation, 30 μg of protein was denatured with β-mercaptoethanol at 95° C. and separated on SDS page gels at 100 V. Then proteins were transferred to a nitrocellulose membrane (Bio-Rad, USA) at 80 V. Non-specific binding was blocked with 5% bovine serum albumin (BSA) (Sigma-Aldrich, USA). Membranes were incubated over night with primary antibody dissolved in TBST, 5% BSA at 4° C. and with secondary antibody coupled to horseradish peroxidase (GE Healthcare, UK) for 1 hour at RT and washed. Imaging of protein bands was performed using Luminol (Biozym, Hamburg, Germany. On a Li-Cor Odyssey FC reader. Quantification of S6-phosphorylation was determined with the same imaging system.
The following antibodies were used: • AKT, P-AKT (S473), S6rP, P-S6rP(S235/236): Cell Signaling (UK) • β-actin: Sigma Aldrich, USA

[3] = tested on: autophagic markers LC3II and p62; experiment: Induction of autophagy in brain of mice (western blot LC3, p62); assay type: in vivo, mouse; conditions: single oral administration 50 mg/kg
Description: In order to investigate whether mTOR inhibition by Cpd. 3 and Cpd. 8 induces autophagy—the essential mechanism for huntingtin aggregate clearance-in the brain, BALB/c nude mice were treated with Cpd. 3 and Cpd. 8 as described in sample 5.

[4] = tested on: R6/2 mice (mutHTT aggregates in the striatum); experiment: Immunohistochemistry of mutHTT aggregates in striata of long-term treated R6/2 mice; assay type: in vivo, mouse; conditions: p.o. 11.5 weeks, Cpd. 3 65 mg/kg, Cpd. 8 16.25 mg/kg, versus vehicle controls
Description: An in vivo model of Huntington's disease was used to evaluate the efficacy of Cpd. 3 and cpd. 8 in reducing mutHTT aggregate formation in the striatum. R6/2 mice are a B6CBA-Tg(HDexon1)62Gbp/3J Huntington's disease mouse model expressing exon 1 of the human huntingtin gene with an extension of 160 f 5 CAG repeats. Mice have a severe phenotype that develops between 4 and 12 weeks.
Treatment groups were established from genotype and measurement of weight, rotarod performance and litter. They were distributed equally over the four groups, each group contained 12 animals. R6/2 mice and their wt counterparts were dosed in the following treatment groups: 1. Wt, vehicle (20% SBECD in water, pH 3); 2. R6/2 vehicle (20% SBECD in water, pH 3); 3. R6/2 Cpd. 3 (65 mg/kg); 4. R6/2 Cpd.8 (16.25 mg/kg). Per oral dosing was performed for 6 days with a following drug holiday of 1 day for a total of 11.5 weeks.
To detect mutHTT aggregates, immunostaining of striata was performed. […]
Images were acquired using a Zeiss Axioplan microscope (Plan-NEOFLUAR×40/0.75 objective, AxioCam MRc) and Axiovision 4.8 software (Carl Zeiss Microscopy GmbH, Jena, Germany). Per animal three subsequent sections of the striatum were analyzed, 4 animals were analysed The EM48 positive structures were analyzed with the ImageJ built in particle analysis, with a fixed threshold for all pictures (ImageJ 1.47v; NIH, Bethesda, MD, USA). […]

pPKB S473 in A2058 cells = experiment: In-cell Western blot, pPKB S473; assay type: cell-based; conditions: Homo sapiens, treated for 1 hour, normalized to α-tubulin
Description: Cells are fixed with 4% paraformaldehyde for 30 minutes at room temperature, washed 2 times with 1% BSA in PBS, permeabilized with 0.1% Triton X-100 in PBS/1% BSA for 30 minutes at room temperature and blocked with 5% goat serum in PBS/1% BSA/0.1% Triton X-100 for 30 minutes at room temperature. […] Cells are washed 3 times 5 minutes with PBS/1% BSA/0.1% triton and plate scanned with the Odyssey Infrared Scanning system using both 700 and 800 nm channels. […] To correct for background staining in the data analysis wells are treated only with secondary antibodies.
For data analysis the mean background signal from channel 700 nm and 800 nm are subtracted from each signal in channel 700 nm and 800 nm, respectively.
IC50 values of each compound are determined by plotting the normalized pPBK S473 and pS6 S235/S236 signals, respectively, versus the compound concentrations (in logarithmic scale) and then by fitting a sigmoidal dose-response curve with variable slope to the data using GraphPad™ Prism.

Structure (SMILES) | autophagy (LC3-II levels) [1] | phosphorylation of S6rP and AKT in brain and thigh muscle ([2]; B57BL/6J mice) | S6 phosphorylation in brain lysates ([2]; mice, 30 minutes to 8 hours) | S6 phosphorylation in thigh muscle lysates ([2]; mice, 30 minutes to 8 hours) | autophagic marker LC3II in brain [3] | autophagic marker p62 in brain [3] | number of mutHTT aggregates counted in striata [4] | IC50 (pPKB S473 in A2058 cells) [nM]
Nc1cc(C(F)F)c(-c2nc(N3C4CCC3COC4)nc(N3C4CCC3COC4)n2)cn1 [Compound 3, 5-(4-(3-oxa-8-azabicyclo[3.2.1]octan-8-yl)-6-(3-oxa-8-azabicyclo[3.2.1]octan-8-yl)-1,3,5-triazin-2-yl)-4-(difluoromethyl)pyridin-2-amine] | induced autophagy in striatal cells | significantly reduced phosphorylation of S6rP and AKT | reduction of S6 phosphorylation | reduction of S6 phosphorylation | time-dependent increase | decrease | not changed | –
C[C@H]1COCCN1c1nc(-c2cnc(N)cc2C(F)F)nc(N2CCOCC2)n1 [Compound 8, (S)-4-(difluoromethyl)-5-(4-(3-methylmorpholino)-6-morpholino-1,3,5-triazin-2-yl)pyridin-2-amine] | – | – | – | – | – | – | – | 74
